In one series the target is T1, PTHR-delNt (Homo sapiens, UniProt Q03431, DEL24-181).
T1 construct: expressed in transfected cells; host or cells: COS-7 cells, transient co-transfection; membranes prepared
T1 sequence (Q03431 with tags, fused parts or gaps DEL24-181): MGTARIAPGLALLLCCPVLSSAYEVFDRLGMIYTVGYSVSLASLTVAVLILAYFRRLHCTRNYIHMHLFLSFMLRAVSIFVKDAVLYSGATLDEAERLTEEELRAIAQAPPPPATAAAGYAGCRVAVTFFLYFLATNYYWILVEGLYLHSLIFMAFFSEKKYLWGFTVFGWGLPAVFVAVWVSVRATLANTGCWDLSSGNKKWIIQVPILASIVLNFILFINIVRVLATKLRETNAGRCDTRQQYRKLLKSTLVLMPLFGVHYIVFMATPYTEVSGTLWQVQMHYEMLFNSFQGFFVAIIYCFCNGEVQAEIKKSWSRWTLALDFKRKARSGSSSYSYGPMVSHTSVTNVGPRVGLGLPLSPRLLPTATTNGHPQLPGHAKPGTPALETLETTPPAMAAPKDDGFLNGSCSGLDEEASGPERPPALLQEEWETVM
Put plainly: Competition binding in COS-7 cell membranes with 125I-[Aib1,3,M]PTH(1-15)NH2 tracer. The note with it: for IC50: COS-7 membranes cotransfected with negative-dominant Gαs, read-out: PTHR-delNT (COS-7) IC50; for effect on binding to PTHR-delNt (in words) / reduction (alteration) of binding affinity for PTHR-delNt relative to parent peptide: COS-7 membranes; for reduction (alteration) of binding affinity for PTHR-delNt relative to parent peptide: versus the respective parent peptide. The method in brief: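 IC50 from four-parameter logistic fitting of specific tracer binding, extrapolated to maximal [Aib1,3,M]PTH(1-15)NH2 inhibition when displacement was incomplete. Competitor peptides (3×10^−9 to 1×10^−5 M) and 125I-[Aib1,3,M]PTH(1-15)NH2 were incubated 90 min, 21 °C, with membranes (20 µg/well) of COS-7 cells expressing N-terminally truncated (Δ24–181) human PTHR with dominant-negative Gαs; 1×10^−6 M unlabeled tracer peptide defined non-specific binding.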

A short description of series [1]: Circular dichroism spectroscopy, helical residues per peptide chain. The note with it: calculated from [θ]222. The format is physicochemical. The method in brief:
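Helical residue count per peptide chain derived from 222 nm mean residue ellipticity via −[θ]222×30/28,000. Spectra taken at 20 °C as four-scan averages, with concentrations verified by absorbance at 280 nm (single tryptophan, 5700 M^−1).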

In a further series the target is T2, ROS 17/2.8 cells (Rattus norvegicus, UniProt P25961).
T2 construct: ROS 17/2.8 cells are rat osteosarcoma cells and express the endogenous PTHR; host or cells: ROS 17/2.8 cells
T2 sequence (P25961 27-591): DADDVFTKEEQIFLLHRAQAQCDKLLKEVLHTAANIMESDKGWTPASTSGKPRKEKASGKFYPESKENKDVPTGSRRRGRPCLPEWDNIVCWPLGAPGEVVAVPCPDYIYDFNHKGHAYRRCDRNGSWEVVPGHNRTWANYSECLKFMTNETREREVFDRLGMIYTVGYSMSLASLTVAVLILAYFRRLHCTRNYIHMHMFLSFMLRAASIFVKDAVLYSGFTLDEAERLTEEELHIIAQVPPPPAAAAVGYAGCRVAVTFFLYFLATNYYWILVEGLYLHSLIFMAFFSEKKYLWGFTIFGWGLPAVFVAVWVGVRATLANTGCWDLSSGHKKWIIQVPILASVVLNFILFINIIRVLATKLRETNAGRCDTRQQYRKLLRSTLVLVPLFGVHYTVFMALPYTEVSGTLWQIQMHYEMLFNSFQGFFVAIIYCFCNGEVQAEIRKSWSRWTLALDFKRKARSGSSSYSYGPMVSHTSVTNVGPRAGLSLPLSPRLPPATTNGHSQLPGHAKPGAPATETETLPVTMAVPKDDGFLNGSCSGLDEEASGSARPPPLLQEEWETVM
The note with it: position-20 substitutions in PTH(1-31)NH2; cited from earlier work.

Where [2] appears, read: [Ala1,Arg19]hPTH(1-31)NH2 analogs.

Here are results for eight compounds from patent US8143374B2, “Polypeptide derivatives of parathyroid hormone (PTH)” (The General Hospital Corporation, priority 2006, dated 2012).

As usually defined, the IC50 is the concentration at which inhibition is half-maximal.

Read-outs that look alike come from different tables or passages of the source. Where a SMILES comes first, the peptide text is derived from it. Where no end group is shown, it is not given here. [ ]: non-standard residue; d: D form. Cha = N[C@@H](CC1CCCCC1)C(=O)O

As for `CC[C@H](C)[C@H](NC(=O)[C@H](CCC(=O)O)NC(=O)[C@H](CO)NC(=O)[C@@H](NC(=O)[C@@H](N)CO)C(C)C)C(=O)N[C@@H](CCC(N)=O)C(=O)N[C@@H](CC(C)C)C(=O)N[C@@H](CCSC)C(=O)N[C@@H](Cc1c[nH]cn1)C(=O)N[C@@H](CC(N)=O)C(=O)N[C@@H](CC(C)C)C(=O)NCC(=O)N[C@@H](CCCCN)C(=O)N[C@@H](Cc1c[nH]cn1)C(=O)N[C@@H](CC(C)C)C(=O)N[C@@H](CC(N)=O)C(=O)N[C@@H](CO)C(=O)N[C@@H](CCSC)C(=O)N[C@@H](CCC(=O)O)C(=O)N[C@@H](CCCNC(N)=O)C(=O)N[C@H](C(=O)N[C@@H](CCC(=O)O)C(=O)N[C@@H](Cc1c[nH]c2ccccc12)C(=O)N[C@@H](CC(C)C)C(=O)N[C@@H](CCCNC(=N)N)C(=O)N[C@@H](CCCCN)C(=O)N[C@@H](CCCCN)C(=O)N[C@@H](CC(C)C)C(=O)N[C@@H](CCC(N)=O)C(=O)N[C@@H](CC(=O)O)C(=O)N[C@H](C(N)=O)C(C)C)C(C)C` [Arg^20→Cit], at PTHR-delNt (hPTH(1-31)NH2 analogs), the IC50 is 10.6 µM. Moreover, the CD helical residues in series [1] (hPTH(1-31)NH2 analogs) is 9. Also, on ROS 17/2.8 cells, the “reduction of cAMP-stimulating potency” value is given as 8 fold.
On to `CC[C@H](C)[C@H](NC(=O)[C@H](CCC(=O)O)NC(=O)[C@H](CO)NC(=O)[C@@H](NC(=O)[C@H](C)N)C(C)C)C(=O)N[C@@H](CCC(N)=O)C(=O)N[C@@H](CC(C)C)C(=O)N[C@@H](CCSC)C(=O)N[C@@H](Cc1c[nH]cn1)C(=O)N[C@@H](CC(N)=O)C(=O)N[C@@H](CC(C)C)C(=O)NCC(=O)N[C@@H](CCCCN)C(=O)N[C@@H](Cc1c[nH]cn1)C(=O)N[C@@H](CC(C)C)C(=O)N[C@@H](CC(N)=O)C(=O)N[C@@H](CO)C(=O)N[C@@H](CCSC)C(=O)N[C@@H](CCCNC(=N)N)C(=O)N[C@@H](CCCNC(=N)N)C(=O)N[C@@H](CC1CCCCC1)C(=O)N[C@@H](CCC(=O)O)C(=O)N[C@@H](Cc1c[nH]c2ccccc12)C(=O)N[C@@H](CC(C)C)C(=O)N[C@@H](CCCNC(=N)N)C(=O)N[C@@H](CCCCN)C(=O)N[C@@H](CCCCN)C(=O)N[C@@H](CC(C)C)C(=O)N[C@@H](CCC(N)=O)C(=O)N[C@@H](CC(=O)O)C(=O)N[C@H](C(N)=O)C(C)C` [Val^21→Cha] (H-AVSEIQLMHNLGKHLNSMRR[Cha]EWLRKKLQDV-NH2; N-terminus assumed), for which the IC50 at PTHR-delNt (setting [2]) was found to be 0.564 ± 0.172 µM. For the same compound, in series [1] (setting [2]), the CD helical residues is reported as 9.
As for `CC[C@H](C)[C@H](NC(=O)[C@H](CCC(=O)O)NC(=O)[C@H](CO)NC(=O)[C@@H](NC(=O)[C@H](C)N)C(C)C)C(=O)N[C@@H](CCC(N)=O)C(=O)N[C@@H](CC(C)C)C(=O)N[C@@H](CCSC)C(=O)N[C@@H](Cc1c[nH]cn1)C(=O)N[C@@H](CC(N)=O)C(=O)N[C@@H](CC(C)C)C(=O)NCC(=O)N[C@@H](CCCCN)C(=O)N[C@@H](Cc1c[nH]cn1)C(=O)N[C@@H](CC(C)C)C(=O)N[C@@H](CC(N)=O)C(=O)N[C@@H](CO)C(=O)N[C@@H](CCSC)C(=O)N[C@@H](CCCNC(=N)N)C(=O)N[C@@H](CCCNC(=N)N)C(=O)N[C@H](C(=O)N[C@@H](CCC(=O)O)C(=O)N[C@@H](Cc1c[nH]c2ccccc12)C(=O)N[C@@H](CC(C)C)C(=O)N[C@@H](CCCNC(=N)N)C(=O)N[C@@H](CCCCN)C(=O)N[C@@H](CCCCN)C(=O)N[C@@H](CC(C)C)C(=O)N[C@@H](CCC(N)=O)C(=O)N[C@@H](CC(=O)O)C(=O)N[C@@H](CC1CCCCC1)C(N)=O)C(C)C` [Val^31→Cha] (H-AVSEIQLMHNLGKHLNSMRRVEWLRKKLQD[Cha]-NH2; N-terminus assumed), the IC50 on PTHR-delNt (setting [2]) stood at 0.466 ± 0.298 µM. Besides, the CD helical residues in series [1] (setting [2]) is 9.
Turning to “AVSEIQLMHNLGKHLNSMRRVEELRKKLQDV-NH2 [Trp^23→Glu]”, at PTHR-delNt, the “effect on binding to PTHR-delNt (in words)” value is recorded as “only mildly impaired binding to PTHR-delNt” and the “reduction (alteration) of binding affinity for PTHR-delNt relative to parent peptide” value was “less than three-fold”. The IC50 at PTHR-delNt (setting [2]) was 0.434 ± 0.084 µM. For the same compound, the CD helical residues in series [1] (setting [2]) is recorded as 7.
Regarding “AVSEIQLMHNLGKHLNSMRRVEWLRKKEQDV-NH2 [Leu^28→Glu]”, on PTHR-delNt, the “effect on binding to PTHR-delNt (in words)” value was “only mildly impaired binding to PTHR-delNt” and the “reduction (alteration) of binding affinity for PTHR-delNt relative to parent peptide” value is given as “less than three-fold”. In addition, the IC50 at PTHR-delNt (setting [2]) was determined as 0.974 ± 0.252 µM. In addition, the CD helical residues in series [1] (setting [2]) is 5.
“SVSEIQLMHNLGKHLNAMERVEWLRKKLQDV-NH2 [Ser^17→Ala]”: the half-maximal inhibitory concentration (IC50) on PTHR-delNt (hPTH(1-31)NH2 analogs) worked out at 4.58 µM. Also, in series [1] (hPTH(1-31)NH2 analogs), the CD helical residues was 10.
With “SVSEIQLMHNLGKHLNSAERVEWLRKKLQDV-NH2 [Met^18→Ala]”, the IC50 on PTHR-delNt (hPTH(1-31)NH2 analogs) is 8.8 µM. Further, the CD helical residues in series [1] (hPTH(1-31)NH2 analogs) is reported as 10.
The like results for “SVSEIQLMHNLGKHLNSMERVEWLRKKLQAV-NH2 [Asp^30→Ala]” were, in that order, 1.54 µM and 10.
